Here are results for eight compounds from PMC10135315 (Antioxidants, 2023).

Where two headings read alike, the source gives them in different places.

The test system of assay [1] is XO. The following applies: cited from earlier work.
Assay [2] addresses T1, xanthine oxidase from bovine milk (Bos taurus, UniProt P80457).
T1 construct: xanthine oxidase from bovine milk (0.5 U/mg); purchased Sigma-Aldrich (St. Louis, MO, USA); host or cells: bovine milk (natural source)
Briefly: Kinetic measurements of XO activity (Michaelis-Menten / Lineweaver-Burk). The assay is classed as biochemical. To be noted: for Ki / Vmax in presence of inhibitor: 4-30 µM xanthine; for Ki: from increase of KM for xanthine, competitive model; for Mechanism of XO inhibition: kinetic analysis; for Vmax in presence of inhibitor: pooled over the tested inhibitor concentrations. On the procedure:
The inhibition power of the various compounds and their mechanism of inhibition were assessed through kinetic measurements of the XO activity. To this aim, each assay was carried out in a 500 µL final volume reaction mixture, containing 4–30 µM xanthine dissolved in buffer A in the absence or presence of a fixed concentration of the various inhibitors. The reaction started with the addition of XO and was followed as indicated in steady-state assays. The kinetic parameters of the reaction, KM for the substrate and Vmax of the reaction, were derived either from the direct non-linear interpolation in the Michaelis–Menten hyperbolic equation of the initial rate of uric acid formation vs. the xanthine concentration or from a double reciprocal transformation of the kinetic data in Lineweaver–Burk plots. […] Therefore, the inhibition constant (Ki) was obtained from the increase of KM for xanthine in the presence of the inhibitor, according to the KM′ = KM•{1 + ([I]/Ki)} equation, where KM′ represents the KM for xanthine measured in the presence of the concentration [I] of the inhibitor.

Assay [3] concerns the target T1, xanthine oxidase from bovine milk. Briefly: Steady-state determination of XO activity (uric acid formation at 295 nm), dose-dependent inhibition. To be noted: 75 µM xanthine; for IC50: steady-state determination, 25 °C, pH 7.8. The assay is classed as biochemical. On the procedure: The activity of XO was measured spectrophotometrically at 25 °C by monitoring the increase of absorbance at 295 nm due to the formation of uric acid, using a Cary 100 UV-Vis Spectrophotometer (Agilent Technologies, Milan, Italy), essentially, as previously reported. […] The DMSO concentration carried over by the inhibitor was 0.5% (v/v); an identical concentration of DMSO was used in the absence of inhibitor. The reaction started with the addition of XO and was followed kinetically up to 30 s by continuously monitoring the absorbance. The initial rate of uric acid formation was derived from the linear part of the kinetics and expressed as ΔE/min. The effect of each inhibitor was evaluated through the ratio of residual XO activity measured in the presence of each inhibitor over that measured in the absence of inhibitor.

The target is the same in assay [4]. Briefly: Reversibility of XO inhibition by dilution method. The format is biochemical. On the procedure: The reversibility of the inhibition mechanism was evaluated through a dilution method of a solution containing XO and inhibitor. To this aim, a sample of XO was incubated at 25 °C in the absence or presence of a concentrated solution of inhibitor. Aliquots of these mixtures were withdrawn at different times and 4-fold diluted through the addition of a solution containing the substrate xanthine. The samples were then immediately assayed for XO activity as previously indicated for the steady-state determinations.

Where [5] appears, read: known XO inhibitors co-crystallised into XO, no reference given.

T1 sequence (P80457 whole entry): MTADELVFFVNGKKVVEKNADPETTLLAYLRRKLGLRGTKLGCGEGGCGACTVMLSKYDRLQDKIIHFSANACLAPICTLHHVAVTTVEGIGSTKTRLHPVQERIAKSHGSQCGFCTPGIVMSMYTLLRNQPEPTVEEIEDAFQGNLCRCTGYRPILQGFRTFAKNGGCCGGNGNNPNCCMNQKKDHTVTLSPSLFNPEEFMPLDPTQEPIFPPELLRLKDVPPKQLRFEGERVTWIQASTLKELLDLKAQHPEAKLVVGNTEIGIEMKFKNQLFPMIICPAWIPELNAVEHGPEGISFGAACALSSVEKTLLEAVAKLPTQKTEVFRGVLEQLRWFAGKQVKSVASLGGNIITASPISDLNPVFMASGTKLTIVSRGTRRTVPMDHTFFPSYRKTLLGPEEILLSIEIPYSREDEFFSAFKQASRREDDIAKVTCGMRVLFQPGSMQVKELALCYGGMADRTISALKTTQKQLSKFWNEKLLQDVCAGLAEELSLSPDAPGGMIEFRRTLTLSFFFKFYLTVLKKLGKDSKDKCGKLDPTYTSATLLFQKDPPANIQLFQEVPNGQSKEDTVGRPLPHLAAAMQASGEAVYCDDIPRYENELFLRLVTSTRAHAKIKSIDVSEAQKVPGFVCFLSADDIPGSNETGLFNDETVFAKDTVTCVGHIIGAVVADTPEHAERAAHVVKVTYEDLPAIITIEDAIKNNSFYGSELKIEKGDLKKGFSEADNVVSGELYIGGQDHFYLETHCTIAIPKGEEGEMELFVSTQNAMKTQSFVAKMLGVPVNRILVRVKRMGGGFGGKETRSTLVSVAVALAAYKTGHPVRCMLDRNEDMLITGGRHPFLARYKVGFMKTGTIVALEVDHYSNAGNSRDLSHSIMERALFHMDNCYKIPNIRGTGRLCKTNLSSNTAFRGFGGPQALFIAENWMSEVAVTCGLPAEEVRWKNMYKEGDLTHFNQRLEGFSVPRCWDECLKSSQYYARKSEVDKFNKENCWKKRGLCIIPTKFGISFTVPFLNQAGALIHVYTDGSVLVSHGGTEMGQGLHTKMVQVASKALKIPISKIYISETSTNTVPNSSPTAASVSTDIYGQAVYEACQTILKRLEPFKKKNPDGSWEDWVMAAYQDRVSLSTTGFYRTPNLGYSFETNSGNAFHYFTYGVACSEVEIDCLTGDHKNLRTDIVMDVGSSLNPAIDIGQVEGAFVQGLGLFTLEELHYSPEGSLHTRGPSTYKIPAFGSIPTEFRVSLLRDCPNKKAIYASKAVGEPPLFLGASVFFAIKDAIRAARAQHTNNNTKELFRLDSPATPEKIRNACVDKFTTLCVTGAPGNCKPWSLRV

For the compound `O=c1c(O)c(-c2ccc(O)c(O)c2)oc2cc(O)cc(O)c12` [quercetin], in assay [1] (setting [5]), the Inhibition mechanism entry is “competitive”.

The Ki is the equilibrium dissociation constant of an inhibitor or competing ligand from its target. As a reminder, the IC50 is the concentration that inhibits the measured activity by half. `Brc1cncc(-c2nn[nH]n2)c1` [ALS-15]: in assay [2], the Ki was 23 ± 9 µM, the “Mechanism of XO inhibition” value is on record as “competitive inhibitors” and the “Vmax in presence of inhibitor” value is 0.086 ± 0.003 (n = 4) ΔE/min. Moreover, in assay [3], the “Inhibition profile of XO activity” value was “dose-dependent inhibition” and half-maximal inhibition (IC50) required 64 µM.

With `N#Cc1cc(-c2n[nH]c(-c3ccncc3)n2)ccn1` [FYX-051, topiroxostat], the Inhibition mechanism entry in assay [1] is recorded as “hybrid-type inhibition mechanism”.

For the compound `O=C(O)c1cc(-c2ccc(Cl)cc2)ncn1` [ALS-28], the “Time-dependent reduction of XO activity” value in assay [4] (60 µM inhibitor, 25 °C, up to 30 min) is recorded as “no time-dependent reduction of XO activity”. The Reversibility of inhibition entry in assay [4] (preincubation with XO at 25 °C up to 30 min, then 4-fold dilution (ALS-28: 60 µM to 15 µM)) is “reversible inhibitor”. In addition, in assay [2], the Ki is 2.7 ± 1.5 µM, the “Mechanism of XO inhibition” value was “competitive inhibitors” and the “Vmax in presence of inhibitor” value is given as 0.113 ± 0.007 (n = 4) ΔE/min. Moreover, in assay [3], the “Inhibition profile of XO activity” value is listed as “dose-dependent inhibition” and the IC50 came out at 18 µM.

Take `O=C(O)c1cc(-c2cccc(F)c2)[nH]n1` [ALS-8]: in assay [2], the Ki stood at 4.5 ± 1.5 µM, the “Mechanism of XO inhibition” value was “competitive inhibitors” and the “Vmax in presence of inhibitor” value is given as 0.093 ± 0.007 (n = 4) ΔE/min. Besides, in assay [3], the “Inhibition profile of XO activity” value was “dose-dependent inhibition” and the IC50 amounted to 30 µM.

For `Cc1nc(-c2ccc(OCC(C)C)c(C#N)c2)sc1C(=O)O` [TEI-6720, febuxostat], in assay [1], the Inhibition mechanism result was “mixed-type inhibition”.

On to `O=C(O)c1cc2ccc(Br)cc2[nH]1` [ALS-1], for which, in assay [2], the Ki was found to be 41 ± 14 µM, the “Mechanism of XO inhibition” value is listed as “competitive inhibitors” and the “Vmax in presence of inhibitor” value was 0.087 ± 0.004 (n = 2) ΔE/min. In assay [3], the “Inhibition profile of XO activity” value is reported as “dose-dependent inhibition” and it took 82 µM to reach half-maximal inhibition (IC50).

In the case of `O=C(O)c1ccccc1O` [salicylic acid], the Inhibition mechanism result in assay [1] (setting [5]) is “competitive inhibitor”.
